Where a SMILES comes first, the peptide text is derived from it.
What was measured:
[1] = Preliminary studies of hypotensive peptide versus diltiazem (diastolic pressure, arrhythmia); format: in vivo, rat
Protocol: Dose: 60 to 120 μg per rat (5 to 10 μM).

[2] = tested on: receptors of sweet tasting papillae; conditions: comparison; cited from earlier work

| Compound | Effect on diastolic pressure [1] | Sweetness relative to sugar [2] [times sweeter than sugar] |
| --- | --- | --- |
| COc1ccc([C@@H]2Sc3ccccc3N(CCN(C)C)C(=O)[C@@H]2OC(C)=O)cc1 [diltiazem] | small increase in the diastolic pressure | – |
| COC(=O)[C@H](Cc1ccccc1)NC(=O)[C@@H](N)CC(=O)O [aspartame] (H-Asp-Phe-OMe) | – | 160 |
